In ChEMBL document CHEMBL4480449, “Conolodinines A-D, Aspidosperma- Aspidosperma Bisindole Alkaloids with Antiproliferative Activity from Tabernaemontana corymbosa” (J Nat Prod, 2019):

Experiments:
HT-29 = assay: Cytotoxicity against human HT-29 cells after 72 hrs by MTT assay; type: functional, cell-based
[1] = Cytotoxicity against human KB/S cells after 72 hrs by MTT assay; type: functional, cell-based
A549 = assay: Cytotoxicity against human A549 cells after 72 hrs by MTT assay; type: functional, cell-based; conditions: A549, 72 h
MRC5 = assay: Cytotoxicity against human MRC5 cells after 72 hrs by MTT assay; type: cell-based
HCT-116 = assay: Cytotoxicity against human HCT116 cells after 72 hrs by MTT assay; type: functional, cell-based; conditions: HCT-116, 72 h
KB/VJ300 [2] = assay: Cytotoxicity against human KB/VJ300 cells after 72 hrs in presence of vincristine by MTT assay; type: functional, cell-based; note: test concentration or dose not given here
PC-3 = assay: Cytotoxicity against human PC3 cells after 72 hrs by MTT assay; type: functional, cell-based
MDA-MB-231 = assay: Cytotoxicity against human MDA-MB-231 cells after 72 hrs by MTT assay; type: functional, cell-based
MCF7 = assay: Cytotoxicity against human MCF7 cells after 72 hrs by MTT assay; type: functional, cell-based
KB/VJ300 [3] = assay: Cytotoxicity against human KB/VJ300 cells after 72 hrs by MTT assay; type: functional, cell-based
LNCaP = assay: Cytotoxicity against human LNCAP cells after 72 hrs by MTT assay; type: functional, cell-based

Structure (SMILES) | IC50 (HT-29; Homo sapiens, HT-29, 72 h) | IC50 ([1]; Homo sapiens, 72 h) | IC50 (A549) | IC50 (MRC5; Homo sapiens, MRC5, 72 h) | IC50 (HCT-116) | IC50 (KB/VJ300 [2]; Homo sapiens, KB/VJ300, 72 h) | IC50 (PC-3; Homo sapiens, PC-3, 72 h) | IC50 (MDA-MB-231; Homo sapiens, MDA-MB-231, 72 h) | IC50 (MCF7; Homo sapiens, MCF7, 72 h) | IC50 (KB/VJ300 [3]; Homo sapiens, KB/VJ300, 72 h) | IC50 (LNCaP; Homo sapiens, LNCaP, 72 h) | IC50 [1] | IC50 (MRC5; mrc5) | IC50 (HT-29; ht-29) | IC50 (KB/VJ300 [2]; kb/vj300) | IC50 (PC-3; pc-3) | IC50 (MDA-MB-231; mda-mb-231) | IC50 (MCF7; mcf7) | IC50 (KB/VJ300 [3]; kb/vj300) | IC50 (LNCaP; lncap)
CC[C@]12C=CCN3CC[C@]4(C(=C(C(=O)OC)C1)Nc1cc5c(cc14)[C@@H]1[C@H](O5)[C@@H](O)[C@@]4(CC)CC(C(=O)OC)=C5N=C6C(=CC(=O)C(OC)=C6OC)[C@@]56CCN1[C@H]64)[C@@H]32 | 400 nM | 30 nM | > 10000 nM | 5600 nM | 100 nM | 4300 nM | 300 nM | 500 nM | 800 nM | 4600 nM | 2800 nM | – | – | – | – | – | – | – | – | –
CC[C@@]12CC(C(=O)OC)=C3N=C4C(=CC(=O)C(O)=C4OC)[C@@]34CCN([C@@H]3c5cc6c(cc5O[C@@H]3[C@H]1O)NC1=C(C(=O)OC)C[C@]3(CC)[C@@H]5O[C@@H]5CN5CC[C@@]16[C@@H]53)[C@H]42 (stereo in doubt; 7) | 800 nM | – | > 10000 nM | – | 500 nM | 3000 nM | 600 nM | 1300 nM | 800 nM | 4200 nM | 1600 nM | 30 nM | 1500 nM | – | – | – | – | – | – | –
CC[C@@]12CC(C(=O)OC)=C3Nc4cc5c(cc4[C@@]34CCN(C[C@H](O)[C@H]1O)[C@@H]24)[C@@H]1[C@H](O5)[C@@H](O)[C@@]2(CC)CC(C(=O)OC)=C3Nc4c(cc(O)c(OC)c4OC)[C@@]34CCN1[C@@H]24 | 1700 nM | 700 nM | > 10000 nM | – | 2100 nM | > 10000 nM | 2500 nM | > 10000 nM | 1200 nM | > 10000 nM | 300 nM | – | – | – | – | – | – | – | – | –
CC[C@@]12CC(C(=O)OC)=C3N=C4C(=CC(=O)C(OC)=C4OC)[C@@]34CCN([C@@H]3c5cc6c(cc5O[C@@H]3[C@H]1O)NC1=C(C(=O)OC)C[C@]3(CC)[C@@H]5O[C@@H]5CN5CC[C@@]16[C@@H]53)[C@H]42 | 200 nM | 100 nM | > 10000 nM | – | 200 nM | 1500 nM | 700 nM | 400 nM | 300 nM | 8600 nM | > 10000 nM | – | – | – | – | – | – | – | – | –
CC[C@]12C=CCN3CC[C@]4(C(=C(C(=O)OC)C1)Nc1cc5c(cc14)[C@@H]1[C@H](O5)[C@@H](O)[C@@]4(CC)CC(C(=O)OC)=C5Nc6c(cc(O)c(OC)c6OC)[C@@]56CCN1[C@@H]46)[C@@H]32 | – | 1500 nM | – | – | – | – | – | – | – | > 10000 nM | – | – | – | – | – | – | – | – | – | –
COc1ccc(CCN(C)CCCC(C#N)(c2ccc(OC)c(OC)c2)C(C)C)cc1OC (stereo unspecified) [VERAPAMIL] | – | – | – | – | – | 800 nM | – | – | – | – | – | – | – | – | – | – | – | – | – | –
CC[C@@]12CC(C(=O)OC)=C3Nc4c(cc(O)c(OC)c4OC)[C@@]34CCN([C@@H]3c5cc6c(cc5O[C@@H]3[C@H]1O)NC1=C(C(=O)OC)C[C@]35CCO[C@H]3CCN3CC[C@@]16[C@@H]35)[C@@H]24 | – | 500 nM | > 10000 nM | 6200 nM | – | 1400 nM | – | – | – | – | – | – | – | – | – | – | – | – | – | –
CC[C@@]12CC[C@@H]3N(C)c4ccc([C@@H]5[C@H]6O[C@H]6[C@@]6(CC)CC(C(=O)OC)=C7Nc8c(cc(O)c(OC)c8OC)[C@@]78CCN5[C@@H]68)cc4[C@@]34CCN(C[C@H]3O[C@H]31)[C@@H]24 [CONOFOLINE] | 8500 nM | > 10000 nM | 8200 nM | – | 6600 nM | – | 2300 nM | 9900 nM | > 10000 nM | > 10000 nM | > 10000 nM | – | – | – | – | – | – | – | – | –
CC[C@@]12CC(C(=O)OC)=C3N=C4C(=CC(=O)C(O)=C4OC)[C@@]34CCN([C@@H]3c5cc6c(cc5O[C@@H]3[C@H]1O)NC1=C(C(=O)OC)C[C@]3(CC)[C@@H]5O[C@@H]5CN5CC[C@@]16[C@@H]53)[C@H]42 (stereo in doubt; 8) | – | – | – | – | – | – | – | – | – | – | – | 10 nM | 4000 nM | 1000 nM | 4200 nM | 500 nM | 800 nM | 700 nM | 2900 nM | 1000 nM
CC[C@@]12CC(C(=O)OC)=C3N=C4C(=CC(=O)C(OC)=C4OC)[C@@]34CCN([C@H](c3ccc5c(c3)[C@@]36CCN7C[C@H]8O[C@H]8[C@@](CC)(CC[C@@H]3N5C)[C@H]76)[C@H]3O[C@H]31)[C@H]42 | 3400 nM | 1100 nM | > 10000 nM | > 10000 nM | 2400 nM | 4400 nM | 4300 nM | 6000 nM | 8400 nM | 2700 nM | 3300 nM | – | – | – | – | – | – | – | – | –
CC[C@@]12CC(C(=O)OC)=C3Nc4cc5c(cc4[C@@]34CCN(C[C@H]3O[C@H]31)[C@@H]24)[C@@H]1[C@H](O5)[C@@H](O)[C@@]2(CC)CC(C(=O)OC)=C3Nc4c(ccc(OC)c4O)[C@@]34CCN1[C@@H]24 | 300 nM | 100 nM | > 10000 nM | – | 1100 nM | 1300 nM | 7900 nM | 1400 nM | 600 nM | > 10000 nM | 9600 nM | – | – | – | – | – | – | – | – | –
CC[C@]1(O)C[C@H]2CN(CCc3c([nH]c4ccccc34)[C@@](C(=O)OC)(c3cc4c(cc3OC)N(C=O)[C@H]3[C@@](O)(C(=O)OC)[C@H](OC(C)=O)[C@]5(CC)C=CCN6CC[C@]43[C@@H]65)C2)C1 [VINCRISTINE] | – | 0.4 nM | – | – | – | – | – | – | – | 2600 nM | – | – | – | – | – | – | – | – | – | –
CC[C@@]12CC(C(=O)OC)=C3Nc4cc5c(cc4[C@@]34CCN(C[C@H]3O[C@H]31)[C@@H]24)[C@@H]1[C@H](O5)[C@@H](O)[C@@]2(CC)CC(C(=O)OC)=C3Nc4c(cc(O)c(OC)c4OC)[C@@]34CCN1[C@@H]24 [CONOPHYLLINE] | 3000 nM | 30 nM | 3200 nM | – | 800 nM | 4900 nM | 300 nM | 1600 nM | 2100 nM | > 10000 nM | > 10000 nM | – | – | – | – | – | – | – | – | –
CC[C@@]12CC(C(=O)OC)=C3N=C4C(=CC(=O)C(OC)=C4OC)[C@@]34CCN([C@@H]3c5cc6c(cc5O[C@@H]3[C@H]1O)NC1=C(C(=O)OC)C[C@]3(CC)[C@H](O)[C@@H](O)CN5CC[C@@]16[C@@H]53)[C@H]42 | 2300 nM | 200 nM | > 10000 nM | > 10000 nM | 3100 nM | > 10000 nM | > 10000 nM | 5400 nM | 3500 nM | > 10000 nM | 2600 nM | – | – | – | – | – | – | – | – | –
CC[C@@]12C=C(C(=O)OC)C3=Nc4c(cc(O)c(OC)c4OC)[C@@]34CCN([C@@H]3c5cc6c(cc5O[C@@H]3[C@H]1O)NC1=C(C(=O)OC)C[C@]3(CC)[C@@H]5O[C@@H]5CN5CC[C@@]16[C@@H]53)[C@@H]24 | 2200 nM | 1100 nM | > 10000 nM | – | 4300 nM | 4100 nM | 4700 nM | 3600 nM | 4800 nM | > 10000 nM | > 10000 nM | – | – | – | – | – | – | – | – | –
